Reference: US20150087610A1, “Method of Modifying Fertility” (Monell Chemical Senses Center, priority 2012, published 2015)
Entries after “also recorded” stand apart in the source; their conditions may differ.

Columns and labels:
[1] = system: mouse spermatids; assay: Calcium imaging of mouse spermatids with bitter tastants; format: cell-based; conditions: Mus musculus, read-out: EC50 of calcium response
Procedure: Eight adult male mice of each genotype: C57BL/6 and Gnat^−/− mice, were sacrificed, and the testis and caudal epididymis were immediately removed and transferred into HS solution containing (mM): 135 NaCl, 5 KCl, 2 CaCl2, 1 MgCl2, 30 Hepes, 10 glucose, 10 lactic acid, and 1 pyruvic acid (pH adjusted to 7.4 with NaOH) (Xia et al., 2007). For isolation of spermatids, seminiferous tubules from mouse testicle were dissected out and placed in a […] containing 3 ml of HS medium. The tissue was finely minced and gently triturated with a fire-polished pipette, and the mixture was filtered with a 100 μm nylon cell strainer (BD Falcon, Bedford, Mass.). The dissociated cells were collected in a 1.5 ml plastic tube, and washed once in HS medium by centrifugation at 300 g for 4 min and resuspended in HS medium.
(§1) Mouse spermatogenic cells were loaded with 5 μM acetoxymethylester of Fura-2 (Fora-2/AM) and 80 μg/ml pluronic F127 (Molecular Probes, Eugene, Oreg.) and transferred onto coverslips (22×60 mm, No. 0, Thomas Scientific Co.) for at least 1 hour at room temperature. The coverslip with spermatogenic cells was mounted in a recording chamber and superfused with HS or HS containing tasting compounds or the bitter blocker probenecid (Sigma-Aldrich, St. Louis, Mo.) via a valve controller (VC-8, Warner, USA).
(§2) Imaging of calcium responses was conducted as previously described (Gomez et al, 2005). Stimulation duration was 30 seconds and perfusion rate was 0.8 ml/min. Cells were excited at 340 nm and 380 nm and signals at 510 nm were captured by a cooled CCD camera. The change in fluorescence ratio (F=F340/F380) was recorded for regions-of-interest drawn on the cells.
To analyze the dose-dependent calcium responses, the response intensity (FN) was normalized and expressed as ΔF/F0 value: ΔF/F0=(F−F0)/F0. Here F0 is the fluorescence at the beginning of stimulation, i.e., time 0, and F is the peak fluorescence ratio evoked by the stimulation. Dose-response curves and EC50 values were generated based on the normalized responses using the software Origins by nonlinear regression.

[2] = target: T1, human T2r14 (Homo sapiens, UniProt Q9NYV8); conditions: heterologously expressed, most sensitive of five human T2rs; cited from earlier work
T1 sequence (Q9NYV8 1-317): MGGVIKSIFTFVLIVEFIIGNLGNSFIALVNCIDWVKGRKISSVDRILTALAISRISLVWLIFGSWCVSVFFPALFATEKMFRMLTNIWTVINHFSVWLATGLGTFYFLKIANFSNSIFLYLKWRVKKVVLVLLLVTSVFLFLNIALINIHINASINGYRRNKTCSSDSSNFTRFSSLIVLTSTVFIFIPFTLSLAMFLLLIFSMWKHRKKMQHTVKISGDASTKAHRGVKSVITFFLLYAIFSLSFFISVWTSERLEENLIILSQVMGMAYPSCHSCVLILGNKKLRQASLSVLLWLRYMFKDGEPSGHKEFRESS

[3] = system: C57B/6L wild-type sperm; assay: Bitter blocker probenecid on calcium responses of wild-type mouse sperm; format: cell-based; conditions: for effect of blocker on response to PTC: preincubation 5 min, 0.3 mM PTC; for response to PTC after wash-off of blocker: after wash-off of 1 mM probenecid
Procedure: as §1, §2
To confirm whether the germ cells' responses to bitter tastants were mediated by the bitter taste receptors, we examined the effect of the bitter taste receptor blocker probenecid (Greene et al, 2001) and nullification of the α-gustducin gene in Gnat3 α-gustducin knockout mice described in Wong et al, 1996. Probenecid is known to inhibit the responses of human T2R16, 38 and 43 to salicin, PTC and PROP, and aloin, but not that of T2R31 to saccharin (Greene et al, 2011).

[4] = target: T2, human T2R38 (Homo sapiens, UniProt P59533); conditions: response to PTC and PROP; cited from earlier work
T2 sequence (P59533 1-333): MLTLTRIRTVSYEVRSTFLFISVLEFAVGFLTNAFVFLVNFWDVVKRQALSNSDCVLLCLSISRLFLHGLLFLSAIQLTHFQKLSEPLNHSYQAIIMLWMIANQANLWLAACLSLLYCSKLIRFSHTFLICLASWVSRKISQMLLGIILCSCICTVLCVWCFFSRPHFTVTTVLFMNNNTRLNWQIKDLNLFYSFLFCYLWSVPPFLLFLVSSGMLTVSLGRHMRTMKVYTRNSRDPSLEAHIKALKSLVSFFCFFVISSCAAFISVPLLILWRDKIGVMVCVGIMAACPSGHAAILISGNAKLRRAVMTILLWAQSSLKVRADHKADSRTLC

[5] = target: T3, human T2R43 (Homo sapiens, UniProt P59537); conditions: response to aloin; cited from earlier work
T3 sequence (P59537 1-309): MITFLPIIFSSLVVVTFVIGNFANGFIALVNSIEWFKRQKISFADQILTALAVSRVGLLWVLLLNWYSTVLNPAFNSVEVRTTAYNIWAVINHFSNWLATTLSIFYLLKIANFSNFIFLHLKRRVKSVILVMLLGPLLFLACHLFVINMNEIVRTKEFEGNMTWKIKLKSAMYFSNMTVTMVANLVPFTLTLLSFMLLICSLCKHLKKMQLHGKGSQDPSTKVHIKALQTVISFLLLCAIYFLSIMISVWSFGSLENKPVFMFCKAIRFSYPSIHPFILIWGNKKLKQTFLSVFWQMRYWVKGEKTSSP

[6] = target: T4, human T2R16 (Homo sapiens, UniProt Q9NYV7); conditions: response to salicin; cited from earlier work
T4 sequence (Q9NYV7 1-291): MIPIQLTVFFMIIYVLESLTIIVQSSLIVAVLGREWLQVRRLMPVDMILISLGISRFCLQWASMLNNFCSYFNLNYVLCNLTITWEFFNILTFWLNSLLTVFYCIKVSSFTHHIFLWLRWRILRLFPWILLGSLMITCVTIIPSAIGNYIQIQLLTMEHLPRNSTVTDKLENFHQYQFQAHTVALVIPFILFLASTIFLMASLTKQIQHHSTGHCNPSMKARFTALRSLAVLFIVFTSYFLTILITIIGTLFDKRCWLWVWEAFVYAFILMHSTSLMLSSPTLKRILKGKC

Row | Structure (SMILES) | EC50 [1] [µM] | EC50 [2] [µM] | effect of blocker on response to cycloheximide ([3]; 1 mM probenecid) | effect of blocker on response to PTC ([3]; 1 mM probenecid) | effect of blocker on response to PTC ([3]; 1 mM probenecid, listed as prebenecid) | response to PTC after wash-off of blocker [3] | response to PTC after wash-off of blocker ([3]; listed as prebenecid) | inhibition of receptor response [4] | inhibition of receptor response [5] | inhibition of receptor response [6]
1 | CC(C)(O)[C@@H]1[C@H]2OC(=O)[C@@H]1[C@]1(O)C[C@H]3O[C@]34C(=O)O[C@H]2[C@]14C [picrotin] | 20 ± 10 | 18 | – | – | – | – | – | – | – | –
2 | CCCN(CCC)S(=O)(=O)c1ccc(C(=O)O)cc1 [probenecid] | – | – | did not block; also recorded: no inhibitory effect | nearly undetectable | nearly completely suppressed | partially recovered | restored | inhibit | inhibit | inhibit
